According to patent publication US8604200B2, “Diaza-spiro-{4,4}-nonane derivatives as neurokinin (NK1) antagonists” (Janssen Pharmaceutica N.V., priority 2005, dated 2013):

Legend:
Assay type in all cases: cell-based
[1] = molecular target: T1, NK3 (Homo sapiens, UniProt P29371); assay: Signal transduction (ST), intracellular Ca++ FLIPR, NK3; conditions: antagonist response, Ca++ transient peak, read-out: NK3 pIC50 (converted)
T1 sequence (P29371 1-465): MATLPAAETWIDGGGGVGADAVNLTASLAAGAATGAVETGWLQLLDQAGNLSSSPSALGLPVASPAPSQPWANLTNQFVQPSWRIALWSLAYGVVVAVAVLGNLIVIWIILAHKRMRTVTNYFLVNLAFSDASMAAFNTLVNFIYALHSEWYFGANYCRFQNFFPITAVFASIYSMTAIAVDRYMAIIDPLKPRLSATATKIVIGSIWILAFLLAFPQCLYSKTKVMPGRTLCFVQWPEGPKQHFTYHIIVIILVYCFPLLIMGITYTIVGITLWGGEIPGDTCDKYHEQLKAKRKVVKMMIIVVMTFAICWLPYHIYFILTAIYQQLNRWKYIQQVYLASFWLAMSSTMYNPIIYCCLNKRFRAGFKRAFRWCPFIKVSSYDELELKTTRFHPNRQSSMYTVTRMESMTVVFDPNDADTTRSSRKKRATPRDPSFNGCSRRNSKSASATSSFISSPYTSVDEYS

[2] = molecular target: NK1 (Homo sapiens, UniProt P25103); assay: Signal transduction (ST), intracellular Ca++ FLIPR, NK1; conditions: antagonist response, Ca++ transient peak, read-out: NK1 pIC50 (converted)
Procedure: This test evaluates in vitro functional NK1 antagonistic activity. For the measurements of intracellular Ca^++ concentrations the cells were grown on 96-well (black wall/transparent bottom) plates from Costar for 2 days until they reached confluence. The cells were loaded with 2 μM Fluo3 in DMEM containing 0.1% BSA and 2.5 mM probenecid for 1 h at 37° C. They were washed 3× with a Krebs buffer (140 mM NaCl, 1 mM MgCl2×6H2O, 5 mM KCl, 10 mM glucose, 5 mM HEPES; 1.25 mM CaCl2; pH 7.4) containing 2.5 mM probenecid and 0.1% BSA (Ca^++-buffer). The cells were preincubated with a concentration range of antagonists for 20 min at RT and Ca^++-signals after addition of the agonists were measured in a Fluorescence Inage Plate Reader (FLIPR from Molecular Devices, Crawley, England). The peak of the Ca^++-transient was considered as the relevant signal and the mean values of corresponding wells were analysed as described below. The sigmoidal dose response curves were analysed by computerised curve-fitting, using the GraphPad Program. The EC50-value of a compound is the effective dose showing 50% of maximal effect. For mean curves the response to the agonist with the highest potency was normalised to 100%. For antagonist responses the IC50-value was calculated using non-linear regression. The last column indicates—without being limited thereto—for which use the compounds might be most suitable.

[3] = molecular target: T2, NK2 (Homo sapiens, UniProt P21452); assay: Signal transduction (ST), intracellular Ca++ FLIPR, NK2; conditions: antagonist response, Ca++ transient peak, read-out: NK2 pIC50 (converted)
T2 sequence (P21452 1-398): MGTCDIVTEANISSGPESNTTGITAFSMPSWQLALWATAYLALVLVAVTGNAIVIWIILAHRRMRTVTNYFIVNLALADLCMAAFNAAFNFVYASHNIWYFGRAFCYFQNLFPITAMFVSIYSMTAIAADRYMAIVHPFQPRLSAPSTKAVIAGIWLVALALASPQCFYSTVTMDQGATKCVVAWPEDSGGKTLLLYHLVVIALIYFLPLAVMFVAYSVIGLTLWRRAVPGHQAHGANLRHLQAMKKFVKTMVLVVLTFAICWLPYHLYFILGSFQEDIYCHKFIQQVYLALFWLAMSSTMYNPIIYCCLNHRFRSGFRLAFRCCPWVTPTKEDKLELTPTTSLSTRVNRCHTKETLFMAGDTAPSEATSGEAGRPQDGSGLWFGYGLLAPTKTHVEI

Chain of NK1 (P25103 whole entry): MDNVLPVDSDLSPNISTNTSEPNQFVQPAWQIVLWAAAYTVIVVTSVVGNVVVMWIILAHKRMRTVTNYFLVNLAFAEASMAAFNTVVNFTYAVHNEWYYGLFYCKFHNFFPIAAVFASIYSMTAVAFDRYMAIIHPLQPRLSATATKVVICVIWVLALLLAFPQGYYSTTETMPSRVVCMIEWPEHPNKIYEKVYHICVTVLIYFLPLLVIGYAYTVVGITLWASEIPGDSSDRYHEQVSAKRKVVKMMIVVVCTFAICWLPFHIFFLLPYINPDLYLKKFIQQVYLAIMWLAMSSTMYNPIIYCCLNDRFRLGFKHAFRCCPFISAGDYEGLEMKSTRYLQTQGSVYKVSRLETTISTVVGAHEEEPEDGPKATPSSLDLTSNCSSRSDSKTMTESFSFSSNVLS

## O=C(c1cc(C(F)(F)F)cc(C(F)(F)F)c1)N1CCC(N2CCC3(CCCN3C(=O)C3CC3)C2)CC1Cc1ccccc1 (stereo not drawn) [Compound 1-3]
[1]
  IC50: > 10000 nM
[2]
  IC50: 251 nM
[3]
  IC50: 3980 nM

## O=C(c1cc(C(F)(F)F)cc(C(F)(F)F)c1)N1CC[C@@H](N2CCC3(CCCN3C(=O)c3ccoc3)C2)C[C@H]1Cc1ccccc1 (stereo partly drawn) [Compound 1-8]
[1]
  IC50: > 10000 nM
[2]
  IC50: 100 nM
[3]
  IC50: 6310 nM

## O=C(c1cccs1)N1CCC2(CCN([C@H]3CCN(C(=O)c4cc(C(F)(F)F)cc(C(F)(F)F)c4)[C@H](Cc4ccccc4)C3)C2)C1 (stereo partly drawn) [Compound 2-7]
[1]
  IC50: 2510 nM
[2]
  IC50: 158 nM
[3]
  IC50: 6310 nM

## O=C(c1cc(C(F)(F)F)cc(C(F)(F)F)c1)N1CCC(N2CCC3(CCCN3Cc3ccccc3)C2)CC1Cc1ccccc1 (stereo not drawn) [Compound 1-2]
[1]
  IC50: > 10000 nM
[2]
  IC50: 631 nM
[3]
  IC50: > 10000 nM

## O=C(c1cc(C(F)(F)F)cc(C(F)(F)F)c1)N1CC[C@H](N2CCC3(CCCN3C(=O)c3ccccc3)C2)C[C@H]1Cc1ccccc1 (stereo partly drawn) [Compound 1-10]
[1]
  IC50: > 10000 nM
[2]
  IC50: 200 nM
[3]
  IC50: 5010 nM

## Cc1nnsc1C(=O)N1CCC2(CCN([C@H]3CCN(C(=O)c4cc(C(F)(F)F)cc(C(F)(F)F)c4)[C@H](Cc4ccccc4)C3)C2)C1 (stereo partly drawn) [Compound 2-8]
[1]
  IC50: 3980 nM
[2]
  IC50: 100 nM
[3]
  IC50: 6310 nM

## O=C(C1CCOC1)N1CCC2(CCN([C@H]3CCN(C(=O)c4cc(C(F)(F)F)cc(C(F)(F)F)c4)[C@H](Cc4ccccc4)C3)C2)C1 (stereo partly drawn) [Compound 2-5]
[1]
  IC50: 2000 nM
[2]
  IC50: 39.8 nM
[3]
  IC50: 2510 nM

## O=C(C1CC1)N1CCC2(CCN(C3CCN(C(=O)c4cc(C(F)(F)F)cc(C(F)(F)F)c4)C(Cc4ccccc4)C3)C2)C1 (stereo not drawn) [Compound 2-4]
[2]
  IC50: 100 nM
[3]
  IC50: 2510 nM

## O=C(c1cc(C(F)(F)F)cc(C(F)(F)F)c1)N1CCC(N2CCC3(CCCN3C(=O)C3CCOC3)C2)CC1Cc1ccccc1 (single isomer, unassigned) [Compound 1-5]
[2]
  IC50: 50.1 nM
[3]
  IC50: 6310 nM

## O=C(c1ccoc1)N1CCC2(CCN([C@H]3CCN(C(=O)c4cc(C(F)(F)F)cc(C(F)(F)F)c4)[C@H](Cc4ccccc4)C3)C2)C1 (stereo partly drawn) [Compound 2-6]
[1]
  IC50: 3160 nM
[2]
  IC50: 50.1 nM
[3]
  IC50: 5010 nM

## CC(C)(C)C(=O)N1CCC2(CCN([C@H]3CCN(C(=O)c4cc(C(F)(F)F)cc(C(F)(F)F)c4)[C@H](Cc4ccccc4)C3)C2)C1 (stereo partly drawn) [Compound 2-3]
[1]
  IC50: 6310 nM
[2]
  IC50: 63.1 nM
[3]
  IC50: 3160 nM

## O=C(c1cc(C(F)(F)F)cc(C(F)(F)F)c1)N1CC[C@@H](N2CCC3(CCCN3C(=O)c3cnccn3)C2)C[C@H]1Cc1ccccc1 (stereo partly drawn) [Compound 1-12]
[1]
  IC50: > 10000 nM
[2]
  IC50: 200 nM
[3]
  IC50: 3980 nM

## O=C(c1cc(C(F)(F)F)cc(C(F)(F)F)c1)N1CC[C@@H](N2CCC3(CCCN3C(=O)c3cccs3)C2)C[C@H]1Cc1ccccc1 (stereo partly drawn) [Compound 1-9]
[1]
  IC50: > 10000 nM
[2]
  IC50: 50.1 nM
[3]
  IC50: 6310 nM

## O=C(c1cc(C(F)(F)F)cc(C(F)(F)F)c1)N1CC[C@H](N2CCC3(CCCN3C(=O)c3ccoc3)C2)C[C@H]1Cc1ccccc1 (stereo partly drawn) [Compound 1-7]
[1]
  IC50: > 10000 nM
[2]
  IC50: 100 nM
[3]
  IC50: 3160 nM

## O=C(c1cnccn1)N1CCC2(CCN([C@H]3CCN(C(=O)c4cc(C(F)(F)F)cc(C(F)(F)F)c4)[C@H](Cc4ccccc4)C3)C2)C1 (stereo partly drawn) [Compound 2-10]
[1]
  IC50: > 10000 nM
[2]
  IC50: 251 nM
[3]
  IC50: 5010 nM

## O=C(c1ccccc1)N1CCC2(CCN([C@H]3CCN(C(=O)c4cc(C(F)(F)F)cc(C(F)(F)F)c4)[C@H](Cc4ccccc4)C3)C2)C1 (stereo partly drawn) [Compound 2-9]
[1]
  IC50: 3980 nM
[2]
  IC50: 126 nM
[3]
  IC50: 5010 nM

## O=C(c1cc(C(F)(F)F)cc(C(F)(F)F)c1)N1CC[C@@H](N2CCC3(CCCN3C(=O)c3ccccc3)C2)C[C@H]1Cc1ccccc1 (stereo partly drawn) [Compound 1-11]
[1]
  IC50: > 10000 nM
[2]
  IC50: 158 nM

## O=C(c1cc(C(F)(F)F)cc(C(F)(F)F)c1)N1CCC(N2CCC3(CCCN3C(=O)C3CCOC3)C2)CC1Cc1ccccc1 (single isomer, unassigned) [Compound 1-6]
[1]
  IC50: > 10000 nM
[2]
  IC50: 63.1 nM
[3]
  IC50: 1580 nM
